The record followed here is PMC6331910, “The Curcumin Analogue 1,5-Bis(2-hydroxyphenyl)-1,4-pentadiene-3-one Induces Apoptosis and Downregulates E6 and E7 Oncogene Expression in HPV16 and HPV18-Infected Cervical Cancer Cells” (Molecules, 2015).

The test system of one assay is HPV16E6. Nature of the assay: Quantitative real-time PCR of viral oncogene mRNA in CaSki cells. It counts as cell-based, HPV16. Particulars: 24 h. The protocol:
(§1) RNA extraction was performed using the Qiagen RNeasy® Mini Kit (Qiagen, Valencia, CA, USA). According to the manufacturer’s instructions, treated HeLa and CaSki cells were lysed using Buffer RLT (supplemented with β-mercaptoethanol) and centrifuged for 3 min at maximum speed. 70% ethanol was added to the lysate and placed in an RNeasy Mini spin column and spun at ≥8000× g for 15 s. Flow-through was discarded and the pellet was subjected to a series of wash steps using buffers RW1 and RPE and subsequent RNA elution. On-column RNase-Free DNase (Qiagen) treatment was incorporated into the extraction protocol to eliminate […]. Concentration and purity of extracted RNA was measured spectrophotometrically using NanoDrop 1000 (Thermo Fisher Scientific, Wilmington, DE, USA). Two μg of total RNA per 20 μL reaction was used for complementary DNA (cDNA) synthesis using a High Capacity RNA-to-cDNA kit (Applied Biosystems, Life Technologies, Foster City, CA, USA). Appropriate volumes of RNA sample were added to 10 μL 2XRT Buffer and 1 μL 20X RT Enzyme Mix and the total volume was adjusted to 20 μL using nuclease-free water. Reverse transcription was performed on the samples using the following conditions; 37 °C for 60 min and 95 °C for 5 min. The sequences used to design the primers and TaqMan® probes were obtained from previous publications, synthesized by Applied Biosystems and optimized to amplify the HPV16 and HPV18 E6 and E7 regions (sequences listed in Table 2) using the StepOnePlus™ Real-Time PCR system (Applied Biosystems). The optimized concentrations of the primers and probes used were […] respectively. Human VIC®-MGB ACTB (β-actin) was used as an endogenous control for internal normalisation and relative gene expression quantification. Each reaction was run in duplicates and used to calculate relative gene expression using the 2^−∆∆CT method. Expression is reported as fold change in the level of mRNA of treated cells relative to untreated cells, normalised to β-actin expression.
In general terms: Quantitative PCR measures a nucleic acid by following its amplification.

A further assay concerns HPV16E7. Described as above. Particulars: 24 h. In kind it is cell-based, HPV16. The protocol: as §1

Consider `O=C(C=Cc1ccccc1O)C=Cc1ccccc1O` [MS17, 1,5-bis(2-hydroxyphenyl)-1,4-pentadiene-3-one], for which the “inhibition of E6 oncogene expression” value in the assay with HPV16E6 (2 μM and 4 μM) is recorded as “did not show significant inhibition”. Moreover, the “decrease in HPV16E6 expression” value with HPV16E6 (6 μM, vs untreated) is 3 fold. Also, the “inhibition of E7 oncogene expression” value in the assay on HPV16E7 (2 μM and 4 μM) is on record as “did not show significant inhibition”. For the same compound, the “decrease in HPV16E7 expression” value in the assay with HPV16E7 (6 μM, vs untreated) turned out to be 3 fold.
